The values that follow come from patent publication US5665716A, “24-homo vitamin D derivatives, process for their production and pharmaceutical preparations obtained therefrom” (Schering Aktiengesellschaft, priority 1989, dated 1997).

This experiment has as its system Keratinocytes of newly born mice. Description: antiproliferative potency: 3H thymidine incorporation in DNA of keratinocytes. Format: cell-based, mouse (neonatal NMRI mice). The note with it: Keratinocyte; neonatal mouse keratinocytes, 24 hours with test substance in serum-free medium at 32.5° C., then 4 hours 3H methyl thymidine; read-out: IC50, inhibition of 3H thymidine incorporation in DNA. How it is done: Keratinocytes of newly born mice, with a slight change of the method of Yuspa, S. and Harris, C.
Neonatal NMRI mice of both sexes are killed by decapitation, the skin is removed, washed in an antibiotic-antimycotic solution and incubated with the dermal side downward in dispase II solution ([…] in tissue culture medium M199+25 mmol/1 of HEPES+15% fetal calf serum (FCS)+50 U/ml of penicillin/streptomycin (P/S) (preparation medium, PM) at 4° C. overnight. The epidermis is removed and an individual cell suspension is produced by trypsinization. After centrifuging, the cell sediment is resuspended, after trypan blue dyeing, the number of living small round cells is determined and the cells are sown in a density of 4×10^5 cells/cm^2 in Primaria 24-hole plates in tissue culture medium (M199+15% FCS+50 U/ml of P/S). […] Then 0.4 microCi/50 microliters of ^3 H methyl thymidine (40 Ci/mmol) is added. After 4 hours the medium is suctioned off and the reaction is ended by addition of 500 microliters of ice-cold 10% trichloroacetic acid (TCA). The cells are washed with TCA and PBS, lysed by incubation in a proteinase K solution (10 mmol/l of tris-HCl, 10 mmol/l of EDTA, 10 mmol/l of NaCl, 0.2% of Triton-X 100, pH 8.0, 50 micrograms/ml of […]) and the lysate is clarified by centrifuging. In the supernatant the radioactivity is determined scintillation photometrically and, after specific staining of the DNA with diamidinophenylindole (DAPI), the DNA concentration is fluorescence photometrically determined.
(Dividing cells build labelled thymidine or BrdU into new DNA.)

As to `C=C1/C(=C\C=C2/CCC[C@]3(C)[C@@H]([C@H](C)CCCC(C)(C)O)CC[C@@H]23)C[C@@H](O)C[C@@H]1O` [Calcitriol, 1alpha,25-dihydroxy-cholecalciferol, reference compound], the IC50 came to 2.7 nM.

For the compound `C=C1/C(=C\C=C2/CCC[C@]3(C)[C@@H]([C@H](C)/C=C/[C@H](O)CC(C)C)CC[C@@H]23)C[C@@H](O)C[C@@H]1O` [Compound A, (5Z,7E,22E)-(1S,3R,24R)-9,10-seco-24a-homo-5,7,10(19),22-cholestatetraene-1,3,24-triol], the IC50 was 6 nM.

On to `C=C1/C(=C\C=C2/CCC[C@]3(C)[C@@H]([C@H](C)/C=C/[C@@H](O)CC(C)C)CC[C@@H]23)C[C@@H](O)C[C@@H]1O` [Compound B, (5Z,7E,22E)-(1S,3R,24S)-9,10-seco-24a-homo-5,7,10(19),22-cholestatetraene-1,3,24-triol], for which the IC50 is 9.5 nM.
